Reference: the NIST ThermoML archive (doi:10.1021/je301123j)
Numbers after ± are expanded uncertainties.

Assay: xn = mol fraction of the nth substance listed
Conditions: for surface tension liquid-gas: Ring tensiometer; for mass density / speed of sound / viscosity: 100 kPa, Liquid

CCN1CCCC1=O [1-ethyl-2-pyrrolidinone] + NCCO
Conditions	mass density [kg/m3]	speed of sound [m/s]	surface tension liquid-gas [mN/m]	viscosity [mPa·s]
293.15 K, x1 = 0.1	1014.83 ± 1.1	1694.5 ± 4	44.9 ± 0.9	16.56 ± 0.2
293.15 K, x1 = 0.2002	1012.06 ± 1.1	1652.1 ± 4	42.4 ± 0.8	11.56 ± 0.14
293.15 K, x1 = 0.2999	1008.77 ± 1.2	1621.1 ± 4	41.1 ± 0.8	8.317 ± 0.11
293.15 K, x1 = 0.4002	1006.13 ± 1.2	1596 ± 4	39.8 ± 0.8	6.255 ± 0.083
293.15 K, x1 = 0.4999	1002.53 ± 1.2	1575.8 ± 4	39.1 ± 0.8	4.742 ± 0.066
293.15 K, x1 = 0.5996	999.47 ± 1.3	1554.4 ± 4	38.3 ± 0.8	3.762 ± 0.053
293.15 K, x1 = 0.7002	998.41 ± 1.3	1540.5 ± 4	37.7 ± 0.8	3.101 ± 0.044
293.15 K, x1 = 0.7999	997.76 ± 1.4	1529.1 ± 4.1	37.3 ± 0.8	2.641 ± 0.039
293.15 K, x1 = 0.8997	997.35 ± 1.5	1519.5 ± 4.1	37.1 ± 0.8	2.325 ± 0.035
293.15 K, x1 = 1	997.91 ± 1.6	1513.2 ± 4.1	36.5 ± 0.8	2.132 ± 0.032
303.15 K, x1 = 0.1	1006.71 ± 1.1	1661.1 ± 4	43.7 ± 0.8	10.66 ± 0.13
303.15 K, x1 = 0.2002	1003.8 ± 1.1	1617 ± 4	41.2 ± 0.8	7.68 ± 0.096
303.15 K, x1 = 0.2999	1000.38 ± 1.1	1582.4 ± 3.9	39.8 ± 0.8	6.051 ± 0.077
303.15 K, x1 = 0.4002	997.65 ± 1.2	1560.4 ± 3.9	38.5 ± 0.8	4.76 ± 0.065
303.15 K, x1 = 0.4999	993.9 ± 1.2	1539.5 ± 4	37.6 ± 0.8	3.526 ± 0.049
303.15 K, x1 = 0.5996	990.78 ± 1.3	1517.3 ± 4	36.7 ± 0.8	2.912 ± 0.041
303.15 K, x1 = 0.7002	989.74 ± 1.4	1503.1 ± 4	36.1 ± 0.8	2.446 ± 0.035
303.15 K, x1 = 0.7999	989.12 ± 1.5	1491.9 ± 4	36.2 ± 0.8	2.147 ± 0.032
303.15 K, x1 = 0.8997	988.75 ± 1.6	1481.7 ± 4.1	35.7 ± 0.8	1.918 ± 0.029
303.15 K, x1 = 1	989.34 ± 1.6	1475 ± 4.1	35.2 ± 0.8	1.777 ± 0.027
313.15 K, x1 = 0.1	998.53 ± 1	1628 ± 4	42.7 ± 0.8	7.237 ± 0.089
313.15 K, x1 = 0.2002	995.42 ± 1.1	1582.8 ± 3.9	40.2 ± 0.8	5.477 ± 0.07
313.15 K, x1 = 0.2999	991.88 ± 1.1	1552.5 ± 3.9	38.7 ± 0.8	4.386 ± 0.058
313.15 K, x1 = 0.4002	989.14 ± 1.2	1527.9 ± 3.9	37 ± 0.8	3.553 ± 0.048
313.15 K, x1 = 0.4999	985.23 ± 1.3	1502.9 ± 3.9	35.9 ± 0.8	2.733 ± 0.038
313.15 K, x1 = 0.5996	982.08 ± 1.4	1480.5 ± 3.9	34.9 ± 0.8	2.322 ± 0.033
313.15 K, x1 = 0.7002	981.06 ± 1.5	1466.1 ± 4	34.5 ± 0.8	1.99 ± 0.029
313.15 K, x1 = 0.7999	980.46 ± 1.6	1454.9 ± 4	35 ± 0.8	1.775 ± 0.026
313.15 K, x1 = 0.8997	980.14 ± 1.6	1444.2 ± 4	34.6 ± 0.8	1.616 ± 0.024
313.15 K, x1 = 1	980.76 ± 1.7	1437.6 ± 4.1	34.2 ± 0.8	1.515 ± 0.023
323.15 K, x1 = 0.1	990.31 ± 1.1	1594.2 ± 3.9	–	5.201 ± 0.067
323.15 K, x1 = 0.2002	986.95 ± 1.1	1549.2 ± 3.9	–	4.011 ± 0.052
323.15 K, x1 = 0.2999	983.29 ± 1.2	1517.9 ± 3.9	–	3.311 ± 0.044
323.15 K, x1 = 0.4002	980.53 ± 1.3	1493.2 ± 3.9	–	2.734 ± 0.037
323.15 K, x1 = 0.4999	976.53 ± 1.4	1467 ± 3.9	–	2.183 ± 0.031
323.15 K, x1 = 0.5996	973.35 ± 1.5	1443.8 ± 3.9	–	1.884 ± 0.027
323.15 K, x1 = 0.7002	972.34 ± 1.6	1429.5 ± 3.9	–	1.659 ± 0.024
323.15 K, x1 = 0.7999	971.78 ± 1.6	1418 ± 4	–	1.503 ± 0.022
323.15 K, x1 = 0.8997	971.5 ± 1.7	1407.6 ± 4	–	1.384 ± 0.021
323.15 K, x1 = 1	972.16 ± 1.8	1400.6 ± 4	–	1.31 ± 0.02
